Assays:
[1] = molecular target: T1, TEM-1 β-lac (Escherichia coli, UniProt P62593); experiment: Printed hydrogel-based β-lac assay (nitrocefin, colorimetric image analysis); format: biochemical; settings: promiscuous aggregating inhibitors; starting concentration 100 μM
Procedure: Inhibitor solutions and nitrocefin (a colorimetric β-lac substrate) were subsequently deposited on the microzones at different concentrations using a high-throughput dispensing robot. The resulting colorimetric read-out of β-lac activity was quantified via image analysis.
POH ink solution was prepared with a final concentration of 50 nM β-lac and used to print hydrogel spots on a 96-well paper microzone plate as described previously. […] The inhibitor was incubated with the printed β-lac for 20 min, after which the assay was initiated with the addition of 5 μl of nitrocefin (500 μM) to each microzone. […] Images were taken with a Canon DSLR camera (operated in manual focus mode without flash) after 25 min. The wax-printed background was filtered out using GIMP software (Version 2.8.16). Image analysis was performed using Fiji, with the converted substrate color extracted using the Color Deconvolution plugin. Extracted images were inverted and converted to 8 bit grayscale images. The intensity of each sample was measured and presented as a ratio of the control image (i.e., a microzone not treated with inhibitor). Calculation of IC50 values was carried out in OriginPro by plotting the calculated percentage inhibition against the added inhibitor concentration. Curve fitting was performed with the dose–response function (OriginLab Corporation, Northampton, MA, USA).

[2] = molecular target: T1, TEM-1 β-lac; experiment: Solution-based β-lac assay (nitrocefin hydrolysis, absorbance at 492 nm); format: biochemical; settings: promiscuous aggregating inhibitors; diluted from 10 mM DMSO stocks
[3] = Promiscuous aggregating inhibitor size measurement by dynamic light scattering (DLS); format: physicochemical; settings: 100 μM solutions; for Aggregate size (Z-average diameter, DLS) / Polydispersity (DLS): 23°C
Procedure: Promiscuous aggregating inhibitor size measurement
Dynamic light scattering measurements were performed using a Zetasizer Nano ZS instrument (Malvern). The intensity of backscattered light was measured at a 173° angle. Data collection and analysis were performed using the Dispersion Technology Software (version 6.0) from Malvern. Samples of Rottlerin, BIS IX and TIPT at 100 μM concentrations were analyzed in a plastic cuvette with a 10 mm path length. Prior to measurement, samples were equilibrated for 120 s at 23°C. For each sample, 10 runs were performed with three repetitions. The intensity size distribution, Z-average diameter and polydispersity index was collected for each sample. Note that no significant signal was acquired from DLS measurements on the true inhibitors, confirming their solution state.

[4] = molecular target: β-lactamase; settings: reported literature values; cited from earlier work

T1 sequence (P62593 24-286 limits assumed): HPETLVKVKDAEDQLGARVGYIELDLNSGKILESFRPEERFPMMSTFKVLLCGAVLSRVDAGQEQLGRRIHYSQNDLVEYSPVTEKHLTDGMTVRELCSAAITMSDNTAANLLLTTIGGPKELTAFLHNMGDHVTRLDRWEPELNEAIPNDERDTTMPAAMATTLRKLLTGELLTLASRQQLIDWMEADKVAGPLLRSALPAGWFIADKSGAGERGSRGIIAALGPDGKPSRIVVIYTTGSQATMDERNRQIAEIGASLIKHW

Compound	Specific inhibition of β-lac in the hydrogel-based assay [1]	Inhibition of β-lac in the solution-based assay (false-positive hit) [2]	Particle size range of aggregates (DLS intensity distribution) [3]	Aggregate size (Z-average diameter, DLS) [3] [nm]	Polydispersity (DLS) [3]	IC50 [4] [µM]
O=C1OC(c2cc(I)c(O)c(I)c2)(c2c(I)cc(O)cc2I)c2ccccc21 (centres unmarked) [TIPT, tetraiodophenolphthalein]	no specific inhibition	inhibited	50-800 nm	154 ± 1	0.16 ± 0.02	
C[C@]1(Cn2ccnn2)[C@H](C(=O)O)N2C(=O)C[C@H]2S1(=O)=O [Tazobactam, tazobactam]						0.04
CC(=O)c1c(O)c(C)c(O)c(Cc2c(O)c3c(c(C(=O)/C=C/c4ccccc4)c2O)OC(C)(C)C=C3)c1O [Rottlerin, rottlerin]	no specific inhibition	inhibited	50-800 nm	188 ± 1	0.24 ± 0.01	
CC1(C)[C@H](C(=O)O)N2C(=O)C[C@H]2S1(=O)=O [Sulbactam, sulbactam]						6.1
[H]/N=C(/N)SCCCn1cc(C2=C(c3cn(C)c4ccccc34)C(=O)NC2=O)c2ccccc21 [BIS IX, bisindolylmaleimide IX]	no specific inhibition	inhibited	50-800 nm	365 ± 9	0.36 ± 0.02	

Reference: PMC5807445, “A printable hydrogel microarray for drug screening avoids false positives associated with promiscuous aggregating inhibitors” (Nature Communications, 2018)
